Reference: patent publication US20230031406A1, “COMPOUNDS AND COMPOSITIONS FOR TREATING CONDITIONS ASSOCIATED WITH NLRP ACTIVITY” (Novartis AG, priority 2018, published 2023)
pIC50: −log10 of the molar value. Blank lines part the entries; values can stand above or below the compound they belong to.

How the values were obtained:
[1] = test system: PMA-differentiated THP-1 cells; experiment: IL-1β production in PMA-differentiated THP-1 cells stimulated with gramicidin (hTHP-1 assay containing 2% fetal bovine serum; Procedures 1 and 2); type: cell-based, human
Outline: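 THP-1 cells were differentiated with PMA (20 ng/ml, 16-18 h), detached, and plated at 50,000 cells/well in RPMI 1640 with 2% FBS. They were pre-treated with compound (0.0017–100 μM, 0.37% DMSO) for 1 h, then stimulated with gramicidin (5 μM) for 2 h. Supernatant IL-1β was measured by HTRF.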

[2] = test system: PMA-differentiated THP-1 cells; experiment: hTHP-1 assay containing 10% fetal bovine serum (IL-1β production, Tables B5 and B6); type: cell-based, human
Outline: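 IL-1β release from PMA-differentiated THP-1 macrophage-like cells was triggered by 5 μM gramicidin for 2 h after 1 h compound exposure, then measured by HTRF.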

[3] = Homo sapiens, THP-1, read-out: hTHP-1 IC50 in 2% FBS, hTHP-1 assay containing 2% fetal bovine serum, Table B5
[4] = Homo sapiens, THP-1, read-out: hTHP-1 IC50 in 10% FBS, hTHP-1 assay containing 10% fetal bovine serum, Table B5

SMILES: CCn1cc(F)c(S(N)(=O)=NC(=O)Nc2c(C)c(C(F)(F)F)nc3c2C(C)CC3)n1 (single isomer, unassigned) [Compound 1100c, (S, R) or (S, S)-N′-((3,5-dimethyl-2-(trifluoromethyl)-6,7-dihydro-5H-cyclopenta[b]pyridin-4-yl)carbamoyl)-1-ethyl-4-fluoro-1H-pyrazole-3-sulfonimidamide]
- pIC50 ([1]; read-out: hTHP-1 IC50 in 2% FBS, hTHP-1 assay containing 2% fetal bovine serum, Table B5, listed as 819): 4.52 to 5.30
- pIC50 ([2]; read-out: hTHP-1 IC50 in 10% FBS, hTHP-1 assay containing 10% fetal bovine serum, Table B5, listed as 819): 4.52 to 5.30

SMILES: CCn1cc(F)c(S(N)(=O)=NC(=O)Nc2c(C)c(C(F)(F)F)nc3c2C(C)CC3)n1 (single isomer, unassigned) [Compound 1100d, (S, S) or (S, R)-N′-((3,5-dimethyl-2-(trifluoromethyl)-6,7-dihydro-5H-cyclopenta[b]pyridin-4-yl)carbamoyl)-1-ethyl-4-fluoro-1H-pyrazole-3-sulfonimidamide]
- pIC50 ([1]; Homo sapiens, THP-1, read-out: hTHP-1 IC50 in 2% FBS, 2% fetal bovine serum, Table B5, value printed as a bound, not a class symbol): < 4.52
- pIC50 ([2]; Homo sapiens, THP-1, read-out: hTHP-1 IC50 in 10% FBS, 10% fetal bovine serum, Table B5, value printed as a bound, not a class symbol): < 4.52

SMILES: CCn1cc(F)c(S(N)(=O)=NC(=O)Nc2c(C)c(C(F)(F)F)nc3c2CC(C)C3)n1 (single isomer, unassigned) [Compound 1101b, (S, R) or (S, S)-N′-((3,6-dimethyl-2-(trifluoromethyl)-6,7-dihydro-5H-cyclopenta[b]pyridin-4-yl)carbamoyl)-1-ethyl-4-fluoro-1H-pyrazole-3-sulfonimidamide]
- pIC50 ([1]; read-out: hTHP-1 IC50 in 2% FBS, hTHP-1 assay containing 2% fetal bovine serum, Table B5, listed as 822): 5.30 to 6.00
- pIC50 ([2]; read-out: hTHP-1 IC50 in 10% FBS, hTHP-1 assay containing 10% fetal bovine serum, Table B5, listed as 822): 5.30 to 6.00

SMILES: CCn1cc(F)c(S(N)(=O)=NC(=O)Nc2c(C)c(C(F)(F)F)nc3c2CC(C)C3)n1 (single isomer, unassigned) [Compound 1101c, (S, S) or (S, R)-N′-((3,6-dimethyl-2-(trifluoromethyl)-6,7-dihydro-5H-cyclopenta[b]pyridin-4-yl)carbamoyl)-1-ethyl-4-fluoro-1H-pyrazole-3-sulfonimidamide]
- pIC50 ([1]; read-out: hTHP-1 IC50 in 2% FBS, hTHP-1 assay containing 2% fetal bovine serum, Table B5, listed as 823): 4.52 to 5.30
- pIC50 ([2]; read-out: hTHP-1 IC50 in 10% FBS, hTHP-1 assay containing 10% fetal bovine serum, Table B5, listed as 823): 4.52 to 5.30

SMILES: CC(C)n1cc(F)c(S(N)(=O)=NC(=O)Nc2c3c(nc4c2CCC42CC2)CCC3)n1 (single isomer, unassigned) [Compound 1102a, (R) or (S)-4-Fluoro-1-isopropyl-N′-((1′,5′,6′,7′-tetrahydro-2′H-spiro [cyclopropane-1,3′-dicyclopenta[b,e]pyridin]-8′-yl)carbamoyl)-1H-pyrazole-3-sulfonimidamide]
- pIC50 ([1]; read-out: hTHP-1 IC50 in 2% FBS, hTHP-1 assay containing 2% fetal bovine serum, Table B5, listed as 813): 7.40 to 8.10
- pIC50 ([2]; read-out: hTHP-1 IC50 in 10% FBS, hTHP-1 assay containing 10% fetal bovine serum, Table B5, listed as 813): 7.40 to 8.10

SMILES: CCn1cc(F)c(S(N)(=O)=NC(=O)Nc2c(C)c(C(F)(F)F)nc3c2C(C)CC3)n1 (stereo not drawn) [Compound 1100, N′-((3,5-dimethyl-2-(trifluoromethyl)-6,7-dihydro-5H-cyclopenta[b]pyridin-4-yl)carbamoyl)-1-ethyl-4-fluoro-1H-pyrazole-3-sulfonimidamide]
- pIC50 ([1]; read-out: hTHP-1 IC50 in 2% FBS, hTHP-1 assay containing 2% fetal bovine serum, Table B5, listed as 795): 5.30 to 6.00
- pIC50 ([2]; read-out: hTHP-1 IC50 in 10% FBS, hTHP-1 assay containing 10% fetal bovine serum, Table B5, listed as 795): 5.30 to 6.00

SMILES: CCn1cc(F)c(S(N)(=O)=NC(=O)Nc2c(C)c(C(F)(F)F)nc3c2CC(C)C3)n1 (stereo not drawn) [Compound 1101, N′-((3,6-dimethyl-2-(trifluoromethyl)-6,7-dihydro-5H-cyclopenta[b]pyridin-4-yl)carbamoyl)-1-ethyl-4-fluoro-1H-pyrazole-3-sulfonimidamide]
- pIC50 ([1]; read-out: hTHP-1 IC50 in 2% FBS, hTHP-1 assay containing 2% fetal bovine serum, Table B5, listed as 796): 7.40 to 8.10
- pIC50 ([2]; read-out: hTHP-1 IC50 in 10% FBS, hTHP-1 assay containing 10% fetal bovine serum, Table B5, listed as 796): 6.00 to 6.70

SMILES: CC(C)n1cc(F)c(S(N)(=O)=NC(=O)Nc2c3c(nc4c2CCC42CC2)CCC3)n1 (stereo not drawn) [Compound 1102, 4-Fluoro-1-isopropyl-N′-((1′,5′,6′,7′-tetrahydro-2′H-spiro [cyclopropane-1,3′-dicyclopenta[b,e]pyridin]-8′-yl)carbamoyl)-1H-pyrazole-3-sulfonimidamide]
- pIC50 [1, 3]: 7.40 to 8.10
- pIC50 [2, 4]: 7.40 to 8.10

Second part, the compound after the results:

- pIC50 ([1]; read-out: hTHP-1 IC50 in 2% FBS, hTHP-1 assay containing 2% fetal bovine serum, Table B5, listed as 814): 5.30 to 6.00
- pIC50 ([2]; read-out: hTHP-1 IC50 in 10% FBS, hTHP-1 assay containing 10% fetal bovine serum, Table B5, listed as 814): 5.30 to 6.00
SMILES: CC(C)n1cc(F)c(S(N)(=O)=NC(=O)Nc2c3c(nc4c2CCC42CC2)CCC3)n1 (single isomer, unassigned) [Compound 1102b, (S) or (R)-4-Fluoro-1-isopropyl-N′-((1′,5′,6′,7′-tetrahydro-2′H-spiro [cyclopropane-1,3′-dicyclopenta[b,e]pyridin]-8′-yl)carbamoyl)-1H-pyrazole-3-sulfonimidamide]

- pIC50 ([1]; read-out: hTHP-1 IC50 in 2% FBS, hTHP-1 assay containing 2% fetal bovine serum, Table B5, listed as 815): 6.70 to 7.40
- pIC50 ([2]; read-out: hTHP-1 IC50 in 10% FBS, hTHP-1 assay containing 10% fetal bovine serum, Table B5, listed as 815): 7.40 to 8.10
SMILES: CC(C)n1cc(F)c(S(N)(=O)=NC(=O)Nc2c3c(nc(C4CC4)c2C2CC2)CCC3)n1 (single isomer, unassigned) [Compound 1103a, (R) or (S)-N′-((2,3-dicyclopropyl-6,7-dihydro-5H-cyclopenta[b]pyridin-4-yl)carbamoyl)-4-fluoro-1-isopropyl-1H-pyrazole-3-sulfonimidamide]

- pIC50 ([1]; read-out: hTHP-1 IC50 in 2% FBS, hTHP-1 assay containing 2% fetal bovine serum, Table B5, listed as 816): 4.52 to 5.30
- pIC50 ([2]; read-out: hTHP-1 IC50 in 10% FBS, hTHP-1 assay containing 10% fetal bovine serum, Table B5, listed as 816): 5.30 to 6.00
SMILES: CC(C)n1cc(F)c(S(N)(=O)=NC(=O)Nc2c3c(nc(C4CC4)c2C2CC2)CCC3)n1 (single isomer, unassigned) [Compound 1103b, (S) or (R)-N′-((2,3-dicyclopropyl-6,7-dihydro-5H-cyclopenta[b]pyridin-4-yl)carbamoyl)-4-fluoro-1-isopropyl-1H-pyrazole-3-sulfonimidamide]

- pIC50 [1, 3]: 6.70 to 7.40
- pIC50 [2, 4]: 6.70 to 7.40
SMILES: CC(C)n1cc(F)c(S(N)(=O)=NC(=O)Nc2c3c(nc(C4CC4)c2C2CC2)CCC3)n1 (stereo not drawn) [Compound 1103, N′-((2,3-dicyclopropyl-6,7-dihydro-5H-cyclopenta[b]pyridin-4-yl)carbamoyl)-4-fluoro-1-isopropyl-1H-pyrazole-3-sulfonimidamide]
